According to ChEMBL document CHEMBL5346964, “Discovery of LNP1892: A Precision Calcimimetic for the Treatment of Secondary Hyperparathyroidism” (J Med Chem, 2023):

How the values were obtained:
[1] = Half life in Sprague-Dawley rat at 1 mg/kg, iv measured upto 24 hrs by LC/MS-MS analysis; assay type: ADME, organism-based; conditions: in vivo
[2] = AUC in cynomolgus monkey at 5 mg/kg, po measured upto 24 hrs by LC/MS-MS analysis; assay type: ADME, organism-based, Macaca fascicularis; set-up: dose 5 mg/kg, time < 24 hrs, route po; conditions: in vivo
CYP2D6 = CYP2D6 (Homo sapiens, UniProt P10635); experiment: Inhibition of CYP2D6 in human liver microsomes at 10 uM preincubated for 5 mins followed by NADPH addition by LC-MS/MS analysis relative to control; assay type: ADME, Microsome
CYP2D6, sequence (P10635 whole entry): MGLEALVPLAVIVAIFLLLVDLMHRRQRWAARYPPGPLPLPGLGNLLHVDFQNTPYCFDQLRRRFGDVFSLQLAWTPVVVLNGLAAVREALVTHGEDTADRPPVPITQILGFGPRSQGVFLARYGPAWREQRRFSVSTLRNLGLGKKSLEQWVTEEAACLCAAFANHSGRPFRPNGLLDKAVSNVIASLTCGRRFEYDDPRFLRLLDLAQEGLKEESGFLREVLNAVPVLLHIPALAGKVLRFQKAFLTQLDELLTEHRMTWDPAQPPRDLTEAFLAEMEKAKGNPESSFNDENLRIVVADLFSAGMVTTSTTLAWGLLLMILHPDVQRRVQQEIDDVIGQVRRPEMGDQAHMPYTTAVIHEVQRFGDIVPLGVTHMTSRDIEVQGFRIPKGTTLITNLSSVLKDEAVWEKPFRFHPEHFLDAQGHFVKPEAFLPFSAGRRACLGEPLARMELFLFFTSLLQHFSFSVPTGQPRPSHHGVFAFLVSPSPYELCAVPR

[3] = Kinetic solubility of compound in SIF upto 500 uM measured after 16 hrs under shaking condition by UV-visible method; assay type: physicochemical; conditions: read-out: Kinetic_solubility
[4] = Protein binding in rat plasma incubated for 16 hrs under shaking condition by rapid equilibrium dialysis based LC-MS/MS method; assay type: ADME, cell-free; conditions: read-out: PPB
[5] = Drug excretion in BALB/c mouse assessed as drug recovery in urine at 1 mg/kg, iv; assay type: ADME, organism-based; conditions: read-out: Drug recovery
Rattus norvegicus [6] = experiment: Chronic effect on parathyroid hormone in overnight fasted adenine diet-induced chronic kidney disease Wistar rat model plasma assessed as reduction in plasma PTH level at 1 mg/kg, po qd measured after 27 days of post treatment by sandwich ELISA analysis; assay type: functional; set-up: scale not given: the % may be the effect or the level left; conditions: time 27 day
[7] = Tmax in BALB/c mouse at 10 mg/kg, po measured upto 24 hrs by LC/MS-MS analysis; assay type: ADME, organism-based; conditions: in vivo
[8] = Chemical stability of the compound in FaSSIF measured after 0.5 to 4 hrs; assay type: physicochemical; conditions: simulated gi fluid; time 0.5-4 hrs
hERG = hERG (Homo sapiens, UniProt Q12809); experiment: Inhibition of hERG at 1 uM relative to control; assay type: toxicity
hERG, sequence (Q12809 whole entry): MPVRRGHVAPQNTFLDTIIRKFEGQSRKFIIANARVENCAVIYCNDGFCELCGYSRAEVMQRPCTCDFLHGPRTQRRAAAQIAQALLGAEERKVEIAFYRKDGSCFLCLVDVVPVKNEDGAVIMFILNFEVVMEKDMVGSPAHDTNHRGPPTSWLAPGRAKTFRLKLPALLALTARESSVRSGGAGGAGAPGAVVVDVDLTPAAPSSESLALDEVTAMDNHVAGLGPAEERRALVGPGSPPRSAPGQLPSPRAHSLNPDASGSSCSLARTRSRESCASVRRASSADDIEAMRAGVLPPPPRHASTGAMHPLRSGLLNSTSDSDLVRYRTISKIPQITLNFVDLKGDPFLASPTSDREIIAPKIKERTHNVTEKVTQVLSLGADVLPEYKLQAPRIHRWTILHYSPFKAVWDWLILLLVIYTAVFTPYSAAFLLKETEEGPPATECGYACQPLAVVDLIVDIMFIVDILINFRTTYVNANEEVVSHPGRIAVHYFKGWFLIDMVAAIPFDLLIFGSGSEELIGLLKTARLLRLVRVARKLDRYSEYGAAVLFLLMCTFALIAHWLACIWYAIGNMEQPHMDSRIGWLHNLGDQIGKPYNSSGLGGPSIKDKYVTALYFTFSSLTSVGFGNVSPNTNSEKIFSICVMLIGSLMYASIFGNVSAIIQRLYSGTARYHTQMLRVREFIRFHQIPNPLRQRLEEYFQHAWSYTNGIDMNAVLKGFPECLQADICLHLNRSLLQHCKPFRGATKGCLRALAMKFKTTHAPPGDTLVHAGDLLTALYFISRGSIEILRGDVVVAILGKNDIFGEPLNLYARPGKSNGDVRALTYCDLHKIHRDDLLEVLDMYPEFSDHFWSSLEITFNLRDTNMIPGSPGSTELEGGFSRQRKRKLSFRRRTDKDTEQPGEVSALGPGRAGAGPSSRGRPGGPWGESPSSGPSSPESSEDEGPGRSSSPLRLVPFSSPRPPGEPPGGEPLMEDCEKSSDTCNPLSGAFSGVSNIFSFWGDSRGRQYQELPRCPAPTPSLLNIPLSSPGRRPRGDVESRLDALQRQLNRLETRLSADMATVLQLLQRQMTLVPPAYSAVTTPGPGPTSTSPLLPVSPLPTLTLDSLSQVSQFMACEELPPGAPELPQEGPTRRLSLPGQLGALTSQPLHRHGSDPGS

[9] = Kinetic solubility of compound upto 500 uM at pH 4 measured after 16 hrs under shaking condition by UV-visible method; assay type: physicochemical; conditions: buffer, read-out: Kinetic_solubility
[10] = Chemical stability of the compound in 0.1N HCL measured after 0.5 to 4 hrs; assay type: physicochemical; conditions: buffer; time 0.5-4 hrs
Cytochrome P450 2B6 = target: T1, Cytochrome P450 2B6 (Homo sapiens, UniProt P20813); experiment: Inhibition of CYP2B6 in human liver microsomes preincubated for 5 mins followed by NADPH addition by LC-MS/MS analysis; assay type: ADME, Microsome
T1 sequence (P20813 whole entry): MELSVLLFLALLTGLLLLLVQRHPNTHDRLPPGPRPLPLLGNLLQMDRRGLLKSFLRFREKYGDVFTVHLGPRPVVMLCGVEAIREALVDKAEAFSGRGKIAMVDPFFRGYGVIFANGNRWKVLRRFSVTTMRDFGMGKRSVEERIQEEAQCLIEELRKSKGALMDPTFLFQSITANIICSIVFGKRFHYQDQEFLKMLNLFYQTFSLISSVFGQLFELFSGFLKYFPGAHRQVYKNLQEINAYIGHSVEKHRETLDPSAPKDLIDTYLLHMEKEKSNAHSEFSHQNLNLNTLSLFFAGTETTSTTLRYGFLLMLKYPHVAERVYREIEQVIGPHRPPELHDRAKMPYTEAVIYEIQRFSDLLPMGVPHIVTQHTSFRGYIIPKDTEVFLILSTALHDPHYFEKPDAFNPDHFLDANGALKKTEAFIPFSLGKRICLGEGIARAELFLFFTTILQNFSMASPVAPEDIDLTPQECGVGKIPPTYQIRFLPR

CYP3A4 = CYP3A4 (Homo sapiens, UniProt P08684); experiment: Inhibition of CYP3A4 in human liver microsomes at 10 uM preincubated for 5 mins followed by NADPH addition by LC-MS/MS analysis relative to control; assay type: ADME, Microsome
CYP3A4, sequence (P08684 whole entry): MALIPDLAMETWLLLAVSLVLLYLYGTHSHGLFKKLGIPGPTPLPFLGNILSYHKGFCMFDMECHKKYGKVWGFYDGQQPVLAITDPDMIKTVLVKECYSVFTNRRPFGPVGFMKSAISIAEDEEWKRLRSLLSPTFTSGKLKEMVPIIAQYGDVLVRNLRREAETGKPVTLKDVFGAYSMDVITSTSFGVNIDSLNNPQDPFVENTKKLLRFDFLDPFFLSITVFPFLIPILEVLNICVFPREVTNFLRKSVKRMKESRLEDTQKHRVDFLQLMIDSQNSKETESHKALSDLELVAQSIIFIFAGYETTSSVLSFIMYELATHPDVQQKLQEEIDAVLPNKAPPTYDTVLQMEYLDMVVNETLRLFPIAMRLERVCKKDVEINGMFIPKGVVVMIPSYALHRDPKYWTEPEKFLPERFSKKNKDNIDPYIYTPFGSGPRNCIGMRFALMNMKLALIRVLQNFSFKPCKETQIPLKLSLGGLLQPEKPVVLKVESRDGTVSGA

[11] = Metabolic stability in mouse liver S9 fraction measured upto 60 mins by LC-MS/MS method; assay type: ADME, subcellular; conditions: read-out: Stability
[12] = Half life in cynomolgus monkey at 1 mg/kg, iv measured upto 24 hrs by LC/MS-MS analysis; assay type: ADME, organism-based, Macaca fascicularis; conditions: in vivo
[13] = Volume of distribution at steady state in Beagle dog at 1 mg/kg, iv measured upto 24 hrs by LC/MS-MS analysis; assay type: ADME, organism-based, Canis lupus familiaris; conditions: in vivo, read-out: Vdss
[14] = Kinetic solubility of compound in 20% HP-beta-CD upto 500 uM measured after 16 hrs under shaking condition by UV-visible method; assay type: physicochemical; conditions: read-out: Kinetic_solubility
[15] = Toxicity in rat assessed as maximum tolerated dose; conditions: in vivo
[16] = Chemical stability of the compound at pH 7.4 measured after 0.5 to 4 hrs; assay type: physicochemical; conditions: buffer, time 0.5-4 hrs
[17] = target: Mu-type opioid receptor (Homo sapiens) (UniProt P35372); experiment: Inhibition of human recombinant MOP receptor at 10 uM relative to control
Mu-type opioid receptor (Homo sapiens), sequence (P35372 whole entry): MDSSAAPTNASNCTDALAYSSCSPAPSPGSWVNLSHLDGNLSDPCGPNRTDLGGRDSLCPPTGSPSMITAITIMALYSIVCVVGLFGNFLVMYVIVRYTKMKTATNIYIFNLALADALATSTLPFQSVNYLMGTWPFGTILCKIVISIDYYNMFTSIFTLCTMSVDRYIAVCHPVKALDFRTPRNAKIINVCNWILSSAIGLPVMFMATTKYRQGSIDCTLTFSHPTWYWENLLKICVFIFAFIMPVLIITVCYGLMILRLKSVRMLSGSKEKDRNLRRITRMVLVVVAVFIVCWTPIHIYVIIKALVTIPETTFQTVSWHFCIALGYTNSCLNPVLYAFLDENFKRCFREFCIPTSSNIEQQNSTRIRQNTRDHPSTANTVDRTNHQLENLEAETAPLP

Rattus norvegicus [18] = experiment: Effect on parathyroid hormone in po dosed overnight fasted Sprague-Dawley rat assessed as reduction in plasma PTH level measured after 0.5 to 6 hrs of post treatment by sandwich ELISA analysis; assay type: functional, organism-based; conditions: dose 3-30 mg/kg, time 0.5-6 hrs
[19] = Plasma clearance in cynomolgus monkey at 1 mg/kg, iv measured upto 24 hrs by LC/MS-MS analysis; assay type: ADME, organism-based, Macaca fascicularis
[20] = Cmax in Sprague-Dawley rat at 300 mg/kg; assay type: ADME, organism-based; set-up: dose 300 mg/kg; conditions: in vivo
[21] = Tmax in Sprague-Dawley rat at 30 mg/kg; assay type: ADME, organism-based; conditions: in vivo
[22] = Metabolic stability in mouse liver cytosol measured upto 60 mins by LC-MS/MS method; assay type: ADME, subcellular; conditions: read-out: Stability
[23] = AUClast in Sprague-Dawley rat at 10 mg/kg, po administered as solution measured upto 24 hrs by LC-MS/MS analysis; assay type: ADME, organism-based; set-up: dose 10 mg/kg, time < 24 hrs, route po; conditions: in vivo
[24] = Cmax in Sprague-Dawley rat at 30 mg/kg; assay type: ADME, organism-based; set-up: dose 30 mg/kg; conditions: in vivo

**Q.** For `Cc1ccc([C@@H]2C[C@H](CN[C@H](C)c3cccc4ccccc34)Oc3ccccc32)cc1C(=O)O.Cl`, which half-life [1] is on record?
**A.** 4 h

**Q.** And the AUC at 24 h [2]?
**A.** 1.3 µM·h

**Q.** And the inhibition at 10 µM (CYP2D6)?
**A.** 0%

**Q.** What about the solubility kinetic at 16 h, 500 µM [3] of the same compound?
**A.** > 300 µM

**Q.** And the fraction unbound at 16 h [4]?
**A.** < 0.01

**Q.** And the dose excreted [5]?
**A.** < 1%

**Q.** And the Activity (Rattus norvegicus [6])?
**A.** 65%

**Q.** What about the Tmax [7] of the same compound?
**A.** 0.25 h

**Q.** What about the Stability [8] of the same compound?
**A.** Stable

**Q.** And the inhibition at 1 µM (hERG)?
**A.** 1%

**Q.** What about the solubility kinetic at 16 h, 500 µM [9] of the same compound?
**A.** > 300 µM

**Q.** What about the Stability [10] of the same compound?
**A.** Stable

**Q.** And the IC50 (Cytochrome P450 2B6)?
**A.** 64 µM

**Q.** What about the inhibition at 10 µM (CYP3A4) of the same compound?
**A.** 0%

**Q.** What about the remaining at 1 h [11] of the same compound?
**A.** > 80%

**Q.** And the half-life [12]?
**A.** 5 h

**Q.** What about the Vd [13] of the same compound?
**A.** 0.7 L/kg

**Q.** What about the solubility kinetic at 16 h, 500 µM [14] of the same compound?
**A.** > 200 µM

**Q.** What about the MTD [15] of the same compound?
**A.** 1000 mg/kg

**Q.** And the Stability [16]?
**A.** Stable

**Q.** And the inhibition [17]?
**A.** > 50%

**Q.** And the Activity (Rattus norvegicus [18])?
**A.** Dose-Dependent Effect

**Q.** And the clearance [19]?
**A.** 151 mL/min/kg

**Q.** And the Cmax [20]?
**A.** 72 µM

**Q.** What about the Tmax [21] of the same compound?
**A.** 0.5 h

**Q.** What about the remaining at 1 h [22] of the same compound?
**A.** > 80%

**Q.** What about the AUC(0-t) at 24 h [23] of the same compound?
**A.** 71 µM·h

**Q.** What about the Cmax [24] of the same compound?
**A.** 24 µM
